Test results as given in patent US9708628B2, “Cationic lipid having improved intracellular kinetics” (NOF CORPORATION, priority 2011, dated 2017).

How the values were obtained:
[1] = Liposome destabilization test in reductive environment (DTT, TNS fluorescence); type: physicochemical; settings: 10 mM DTT, 37° C., 0-24 hr; TNS at pH 4.0
Protocol: DTT was added to various MEND solutions to a final concentration of 10 mM and the mixtures were stood at 37° C. The fluorescence intensity was measured using TNS (6-(p-Toludino)-2-Naphthalene Sulfonic acid) at the time points of 0, 1, 2, 4, 8, 24 hr later. The MEND solutions were diluted to 0.5 mM. The 0.5 mM MEND solution (12 μL), 20 mM citrate buffer (186 μL, containing 150 mM NaCl, acidic pH (pH 4.0)), and 0.6 mM TNS (2 μL) were added to a 96-well plate for fluorescence measurement (Nunc), and the fluorescence intensity was measured at excitation wavelength 321 nm, detection wavelength 447 nm, at 37° C. As a control, MEND solution added with the same amount of 10 mM HEPES buffer free of DTT at 0 hr and stood for each time at 37° C. was used, and the fluorescence intensity was measured using TNS by the same treatment. The fluorescence intensity under reductive environment was divided by the fluorescence intensity of the control and used as an index of the destabilization of lipid membrane.
As a result, attenuation of TNS fluorescence due to the DTT treatment was not observed in DODAP and B-2-1 not having a disulfide bond. […] TNS is adsorbed, under an acidic environment of pH 4.0, to a particle surface having a positive surface potential via electrostatically interactions, and emits fluorescence according to the liposoluble environment of the lipid structure part of a liposome.

HT1080 cells [2] = experiment: Intracellular kinetics: endosomal escape of rhodamine-labeled pDNA (confocal microscopy); type: cell-based; settings: for gene endosomal escape efficiency, quantified (order): FIG. 7; for endosomal escape potency (colocalization of pDNA red and endosome/lysosome green): cationic lipid:SOPE:Chol=5:3:2 or DOTAP:DOPE:Chol=3:4:3, 3 hr after transfection
Protocol: For MEND preparation, the Rhodamine-labeled pDNA prepared by the method of [Experimental Example 1] (4) was used. MEND having a composition of cationic lipid:SOPE:Chol=5:3:2 was prepared by the method described in [Experimental Example 1] (2). For the preparation, PEG2000-DMG was used as PEG lipid, and MEND solutions corresponding to 0.55 mM of the lipid concentration were prepared. For cationic MEND, lipids having a composition of DOTAP (Comparative Example 3):DOPE:Chol:=3:4:3 were used, and the cationic MEND was prepared according to the method described in [Experimental Example 1] (3). In addition, cationic MEND having a lipid composition of DOTAP:DOPE:Chol:=3:4:3 was also prepared by a simple hydration method to have a lipid concentration of 0.55 mM.
HT1080 cells were plated on a glass bottom dish at 1×10^5 cells/2 mL/dish 24 hr before. Since MENDs composed of B-2 or DODAP show low uptake activity into cells, MEND was diluted with Krebs buffer to pDNA 8 μg/1 mL Krebs buffer/dish. As for B-2-1 or DOTAP MEND having a high uptake activity, MEND was diluted with Krebs buffer to pDNA 1.6 μg/1 mL Krebs buffer/dish and transfected into the cells. After 2.5 hr, Lysotracker Green (Life technologies) was added at 1 μL/dish and, 30 min later, Hoechst 33342 (Dojindo) was further added at 1 μL/dish. 3 hr after the transfection, the cells were washed twice with heparin (20 units/mL, 2 mL), Krebs buffer (1 mL) was added, and the mixture was observed by a confocal laser scan microscope.
Rhodamine-labeled pDNA, endosome/lysosome, and nucleus were shown in pseudo colors of red, green and blue, respectively. The endosomal escape potency was evaluated by the colocalization of red and green. […] Furthermore, the gene endosomal escape efficiency was quantified to find higher efficiency in the order of DODAP<B-2-1<B-2.

HT1080 cells [3] = experiment: Influence of endosome/lysosome acidification inhibition (bafilomycin A1) on gene expression activity; type: cell-based; settings: 0.5 μM bafilomycin A1
Protocol: Using B-2 (Example 1), B-2-1 (Comparative Example 1), and DODAP (Comparative Example 2) as cationic lipids, MENDs having a composition of cationic lipid:SOPE:Chol=5:3:2 were prepared by the method described in [Experimental Example 1] (2). For the preparation, PEG2000-DMG was used as PEG lipid, and MEND solutions corresponding to 0.55 mM of the lipid concentration were prepared. For cationic MEND, lipids having a composition of DOTAP (Comparative Example 3):DOPE:Chol:=3:4:3 were used, and the cationic MEND was prepared according to the method described in [Experimental Example 1] (3).
HT1080 cells were plated on a 24-well plate at 4×10^4 cell/500 μL/well 24 hr before, bafilomycin A1 was added at 0.5 μM 30 min before for a pre-treatment. Various MENDs were diluted with DMEM (FBS 10%+) to a pDNA amount of 0.4 μg/500 μL/well, bafilomycin A1 was added at 0.5 μM, and transfection was performed. 3 hr later, the MEND solution was removed, and DMEM (FBS 10%+) was added at 500 μL/well to change the medium. 24 hr later, the cells were washed with PBS(−) (500 μL), 1× Lysis buffer was added to each well by 75 μL, and the mixture was stood at −80° C. for 30 min or longer. The frozen 24-well plate was thawed on ice, the cells were detached with a cell scraper, and the total amount thereof was transferred into an Eppendorf tube and centrifuged under the conditions of 15000 rpm, 4° C., 5 min. The supernatant (50 μL) was recovered in a different Eppendorf tube, and used for luciferase assay and BCA assay. The gene expression was evaluated by the method described in [Example 4] (2).

HT1080 cells [4] = experiment: Intracellular kinetics: decapsulation of pDNA from MEND (confocal microscopy); type: cell-based; settings: 3 hr after transfection
Protocol: For MEND preparation, the Rhodamine-labeled pDNA prepared by the method of [Experimental Example 1] (4) was used. In addition, the fluorescence label of the lipid constituting MEND was measured by the method described in [Experimental Example 1] (3). MENDs having a composition of cationic lipid:SOPE:Chol=5:3:2 were prepared by the method described in [Experimental Example 1] (2). For the preparation, PEG2000-DMG was used as PEG lipid, and MEND solutions corresponding to 0.55 mM of the lipid concentration were prepared. For cationic MEND, a lipid having a composition of DOTAP:DOPE:Chol:=3:4:3 was used, and the cationic MEND was prepared according to the method described in [Experimental Example 1] (3). […]
HT1080 cells were plated on a glass bottom dish at 1×10^5 cells/2 mL/dish 24 hr before. B-2 MEND was diluted with Krebs buffer to achieve pDNA 8 μg/1 mL Krebs buffer/dish. As for B-2-1 or DOTAP MEND, MEND was diluted with Krebs buffer to achieve pDNA 1.6 μg/1 mL Krebs buffer/dish and transfected. After 2.5 hr, Hoechst 33342 was added at 1 μL/dish and, 30 min later, the cells were washed twice with heparin solution (20 units/mL, 2 mL), Krebs buffer (1 mL) was added, and the cells were observed by a confocal laser scan microscope.
Rhodamine-labeled pDNA, lipid membrane of MEND and nucleus were shown in pseudo colors of red, green and blue, respectively.

attenuation of TNS fluorescence due to DTT treatment (destabilization of lipid membrane) [1]	SMILES	gene endosomal escape efficiency, quantified (order) (HT1080 cells [2])	endosomal escape potency (colocalization of pDNA red and endosome/lysosome green) (HT1080 cells [2])	gene expression activity under bafilomycin A1 (HT1080 cells [3])	gene decapsulation (colocalization of pDNA red and MEND lipid green) (HT1080 cells [4])
not observed	CCCCCCCC/C=C\CCCCCCCC(=O)OCC(CN(C)C)OC(=O)CCCCCCC/C=C\CCCCCCCC (centres unmarked) [DODAP, reference compound]	DODAP<B-2-1<B-2	colocalization of red and green was notable	showed a decrease in the gene expression activity	–
–	CCCCCCCC/C=C\CCCCCCCC(=O)OCC(C[N+](C)(C)C)OC(=O)CCCCCCC/C=C\CCCCCCCC (centres unmarked) [DOTAP, reference compound]	–	red signal alone was present	did not show a decrease in the gene expression activity	Red dots were notable
not observed	CCCCCCCCCCCCCC(=O)OCCCN(C)CCCCCCN(C)CCCOC(=O)CCCCCCCCCCCCC [Example B-2-1, reference compound]	DODAP<B-2-1<B-2	red signal alone was present	did not show a decrease in the gene expression activity	clear colocalization of red and green

SMILES	attenuation of TNS fluorescence due to DTT treatment (destabilization of lipid membrane) [1]	gene endosomal escape efficiency, quantified (order) (HT1080 cells [2])	endosomal escape potency (colocalization of pDNA red and endosome/lysosome green) (HT1080 cells [2])	gene expression activity under bafilomycin A1 (HT1080 cells [3])	gene decapsulation (colocalization of pDNA red and MEND lipid green) (HT1080 cells [4])
CCCCCCCCCCCCCC(=O)OCCCN(C)CCSSCCN(C)CCCOC(=O)CCCCCCCCCCCCC [Example B-2]	disappearance of TNS fluorescence in a time-dependent manner	DODAP<B-2-1<B-2	red signal alone was present	showed a decrease in the gene expression activity	Red dots were notable
